Patent publication US11638427B2, “Methods and compositions for altering secondary metabolites in plants” (Impello Biosciences, Inc, priority 2020, dated 2023)

Legend:
oyster mushroom = assay: Fungal plug growth on jasmonate-infused PDA plates; type: cell-based; conditions: all concentrations (1 mM, 4.25 mM, 10 mM) in PDA; 72 hours and 10 days
Description: (§1) MDJ (TCI, CAS No.: 24851-98-7) and CJ were infused into potato dextrose agar (PDA, VWR Cat No.: 90003-494) petri dishes (100×15 mm VWR, Cat No: 25384-094) at concentrations ranging from 1 mM, 4.25 mM, and 10 mM. Each treatment was prepared using a technical grade stock solution of pure chemical (CJ or MDJ) diluted with TWEEN®-20 (VWR, CAS No.: […]). Culturable oyster mushroom and seedling mold served to create fungal mycelial plugs using a sterile 1 mL pipette tip (Eppendorf, Cat No.: 022491458) held upside down. The tips were used to make circle excisions (i.e., fungal plugs) from a mycelial mat grown on PDA with no biochemical infusions. Fungal pugs were then transferred to PDA infused with varying concentrations of CJ or MDJ, and control plates (no CJ or MDJ infusion) to monitor fungal growth at room temperature over time.

[1] = system: marijuana variety Lemon Creamsicle; assay: Foliar spray of CJ or MDJ on high-THC marijuana in greenhouse, cannabinoid analysis; type: in vivo, Cannabis spp.; conditions: 7.5 mM foliar spray every 14 days, four treatments
Description: Applicant's previous experiments investigated the effects of jasmonate-type elicitors MeJA, MDJ, and CJ on hemp (high fiber) and high-CBD, (low-THC) varieties of Cannabis. […] Here, the effects of MDJ and CJ application on a high-THC variety in a controlled environment was investigated. High-THC, low-CBD marijuana variety “Lemon Creamsicle” (LC), was grown in a greenhouse setting. LC was used as a plant model due to its historically consistent metabolite profile in the greenhouse environment, making it a stable, known, and reliable variety.
A four-block plant trial was implemented with a population of N=12 plants and treatment group sizes of n=4. The treatment and control groups were defined as follows: Control=water+0.1% TWEEN®-20 aqueous foliar spray, Treatment 1=[7.5 mM] CJ+0.1% TWEEN®-20 aqueous foliar spray, Treatment 2=[7.5 mM] MDJ+0.1% TWEEN®-20 aqueous foliar spray. A standardized concentration of [7.5 mM] for both CJ and MDJ applications was chosen due to its performance in Applicant's past research. All treatment solutions were prepared the day of the application in equal volumes from pre-measured quantities of the stock materials to ensure consistency, i.e., appropriate volumes of CJ or MDJ were combined with appropriate volumes of TWEEN®-20 for each experimental treatment, stored in a sealed centrifuge tube, and diluted in the appropriate amount of water immediately prior to application. Separate sprayers were used for each treatment and control sprays to avoid cross-contamination.
All plants in the trial were produced as asexual clone stock taken from the same mother plant at the same time to ensure homogeneity. All plants were rooted and grown in accordance with the production practices typical to this greenhouse operator prior to plant selection for the experiment. Due to the layout of the cultivation system, which features immovable hydroponic “pots” that house the plant throughout the entire flowering (i.e., reproductive) phase, all plants included in the experiment were selected from a set section of the greenhouse after final transplant into the hydroponic system and grouped in a complete randomized block design accordingly.
After defining the plants to include in the experiment, which were organized in two (2) rows of six (6) plants side-by-side in the hydroponic system, the experimental blocks were defined as groups of three plants, and a research randomizer tool (randomizer.org) was used to generate a randomized arrangement of plants in each group. Using a blocked design in this setting helped account for the immovable nature of the plants and the slight, if any, environmental differences (like natural sunlight, shading from other plants, and corner/edge effect) that existed in the small experimental area. Blocking the experimental arrangement also allowed for improved statistical analysis and resolution considering the small sample size and close proximity of the experimental plants.
After labelling each plant in the experiment with the appropriate group label (Control, T1 [CJ], or T2 [MDJ]), the plants were allowed to grow normally between treatment applications, which were performed every 14 days for a total of four (4) treatments throughout the flowering cycle, which lasted approximately eight (8) weeks. The first treatment occurred seven (7) days after the onset of the flowering cycle, which was dictated by day-length control. Care was taken with each treatment application to minimize overspray onto non-target neighboring plants, and physical barriers were temporarily installed between plants during treatment sprays to aid in this effort. These barriers were removed following treatment sprays when the foliage was no longer visibly wet from the treatment and/or control foliar sprays. […]

seedling mold = assay: Fungal plug growth on jasmonate-infused PDA plates; type: cell-based, Trichoderma ghanense; conditions: all concentrations (1 mM, 4.25 mM, 10 mM) in PDA; 72 hours and 10 days
Description: as §1
To compare the efficacy of MDJ and MeJA at inhibiting the same seedling mold as used in the experiment above, a second experiment was conducted using PDA plates infused with either MDJ or MeJA at different concentrations. All plates were generated and inoculated as described above and incubated at room temperature under identical conditions. Shown in FIGS. 9A-9C are plates of seedling mold 72 hours post fungal inoculation. Control plates are shown on the top row, followed by concentrations of MeJA (left) and MDJ (right) in duplicate at 1 mM (FIG. 9A), 4.25 mM (FIG. 9B), and 10 mM (FIG. 9C). […] Subsequent sequence analysis identified the “seedling mold” as Trichoderma ghanense.

[2] = system: high-CBD hemp varieties Stormy Daniels and BaOX; assay: Field foliar applications of MDJ, MeJA and CJ on high-CBD hemp, cannabinoid analysis; type: in vivo, Cannabis spp.; conditions: 7.5 mM foliar, four applications every 14 days in flowering
Description: However, MDJ is not known to have any significant bioactivity in planta and is not an endogenously produced phytohormone in cannabis, so it was unknown whether MDJ would afford the same functionality as MeJA. Similarly, CJ has likewise been relatively under-investigated as a plant elicitor despite being a decarboxylation product of Jasmonic Acid. Here, the effect of MDJ and CJ were analyzed (in addition to MeJA) in order to determine any difference in the effect of these treatments on field-grown high-CBD hemp varieties.
A hemp field experiment was conducted during the flowering phase of plant development in a private research field located in North Carolina. Sixty (60) plants from two distinct plant variety populations, Stormy Daniels and BaOX were selected for the trial. Each group of 60 plants was randomly divided into three groups of 20 plants and labeled accordingly to indicate the treatment group (T1, T2, T3). All plants were cultivated identically and subjected to approximately the same environmental conditions. Control, untreated plants were taken from the same field. Plants were treated according to treatment group, and each treatment group was subjected to four (4) applications of its respective treatment, with the first treatments applied on what was considered to be the first day of the flowering phase and repeated then again every successive 14 days up until just prior to harvest. Treatments were as follows: Control group=Control, Treatment 1=MDJ, Treatment 2=MeJA, Treatment 3=CJ.
All treatments were prepared in a stock (concentrated, non-aqueous) form by Impello Biosciences in their lab in Loveland, Colo. and labelled respectively prior to the start of the experiment. All treatments were prepared at a high stock concentration that allowed dilution by the applicator with 2 liters of water to a final 7.5 mM concentration of active ingredient (i.e., MeJA, MDJ, or CJ) for each treatment; 15-mL centrifuge tubes were used as preparation and storage vessels for each of the treatments. Preparation of the stock solutions ensured that the applicator could store the solutions prior to use at 4° C. to minimize degradation and allow for dilution immediately prior to use. In the stock containers, 2 mL of TWEEN®-20 was added to each respective elicitor compound as an emulsifier in order to reach a final oil-in-water emulsion once diluted with a concentration of 7.5 mM active ingredient and 0.1% surfactant (i.e., TWEEN®-20) v/v.
Plants were grown to maturity and 5 plants from each treatment and control group were sampled on Sep. 23, 2019. Care was taken to ensure samples were similar in appearance and spatial location between plants to minimize unintended variance in sample quality. The apical cola for each plant was harvested, and specifically, the top 3″ of the main cola. Yield data was not collected in this study, but no obvious differences in plant size or appearance were noted. Samples were submitted for chemical analysis (Avazyme, Inc, NC).
All models were linear models fit with Group (treatment) as the independent variable and the response variable was the corresponding compound. Data was filtered and comparison between treatments were conducted using the emmeans package and Tukey HSD for post-hoc corrections. Statistical significance was defined by a level of significance of p<0.05 in the Tukey test. Total cannabinoids included CBN, Δ9-THC, CBDV, CBG, CBD, CBC, CBDA, CBGA, THCA, and THCV. Total THC and total CBD were calculated by accounting for the additional weight of the carboxyl group in the acidic forms and adding those to the neutral/non-acidic forms.

In the case of `CC/C=C\CC1=C(C)CCC1=O` [CJ, cis-jasmone], the “Oyster mushroom fungal growth compared to control” value (oyster mushroom) is reported as “showed inhibition”, the “CBGA average relative percent increase compared to the Control group” value [1] is reported as 11.22% and the “THCA average relative percent increase compared to the Control group” value [1] is reported as 1.13%. For the same compound, the “Total Cannabinoids average relative percent increase compared to the Control group” value [1] was 1.17%, the “Total THC average relative percent increase compared to the Control group” value [1] was 1.03% and the “seedling mold growth compared to control” value (seedling mold) was “showed inhibition”. For the same compound, the “CBDA increase relative to the control group” value [2] was 23.61%, the “THCA increase relative to the control group” value [2] was 27.23% and the “Total CBD increase relative to the control group” value [2] was 23.64%. The “Total Cannabinoids increase relative to the control group” value [2] was 22.92% and the “Total THC increase relative to the control group” value [2] was 27.09%.
